From patent publication US20210353579A1, “HIGH PENETRATION COMPOSITIONS AND USES THEREOF” (Techfields Pharma Co., Ltd., priority 2006, published 2021)
Values after ≈ are worked out from the molar mass of the structure shown.

How the values were obtained:
[1] = Plasma levels after transdermal administration to hairless mice; format: in vivo; conditions: for t, time to peak plasma level after parent compound: parent compound administered (time when taken orally); for Peak plasma concentration after parent compound: parent compound administered, hairless mice; for Peak plasma concentration of parent compound after prodrug compound / t, time to peak plasma level of parent compound after prodrug compound: mouse, in vivo
Protocol: Tested compounds (20% solution or suspension in 1 mL isopropanol) are administered transdermally to the skin of intact hairless mice. The plasma levels of the parent compounds are determined by HPLC.

[2] = tested on: human skin tissue; conditions: pH 7.4; for In vitro penetration rate (apparent flux), parent compounds: human, 20 %
[3] = Solubility in water / aqueous solubility of HPPs and parent drugs; conditions: for solubility: water; for Solubility in water: product as prepared in Example 1
[4] = tested on: mice; test: Analgesic activity, acetic acid writhing; format: in vivo; conditions: 100 mg/kg transdermally, 30 min before acetic acid
Protocol: The prodrug compounds are administered either transdermally or orally. The parent compounds are administered orally. The number of writhing that occurred when mice are administered the acetic acid solution are counted, and the rate of inhibition based on the control group which was not pretreated with any test compounds is calculated. […] The A group is the control group.

[5] = tested on: rats; test: Antipyretic activity, E. coli suspension as pyrogen; format: in vivo; conditions: 100 mg/kg transdermally; in °C (unit assumed)
Protocol: Rats are administered with sterilized E. coli suspension as a pyrogen. Each group of rats are administered with a prodrug compounds or parent compounds at a dosage specified below. The prodrug compounds are administered either orally or transdermally. The parent compounds are administered orally.

[6] = tested on: rat; conditions: rats;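 note: acute toxicity in rats expressed as LD50, determined for both prodrugs and their parent compounds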
Protocol: The acute toxicity of the prodrug compounds and parent compounds are measured by LD50 of rat.

Structure (SMILES)	t, time to peak plasma level after parent compound [1]	Peak plasma concentration after parent compound [1]	In vitro penetration rate (apparent flux), parent compounds [2]	solubility [3]	further results
C=CCOc1ccc(CC(=O)O)cc1Cl [Alclofenac, alclofenac, reference compound]	1 to 2 h	0.1 mg/L	10 μg/cm^2/h	100 µg/mL (≈ 0.441 mM)	–
O=C(O)COc1nn(Cc2ccccc2)c2ccccc12 [Bendazac, bendazac, reference compound]	1 to 2 h	0.1 mg/L	–	100 µg/mL (≈ 0.354 mM)	–
CC(C)Cc1ccc(CC(=O)O)cc1 [Ibufenac]	–	–	–	100 µg/mL (≈ 0.52 mM)	–
Cc1cc(NC(=O)C2=C(O)c3ccccc3S(=O)(=O)N2C)no1 [Isoxicam, isoxicam, reference compound]	2 to 4 h	0.1 mg/L	<1 μg/cm^2/h	< 100 µg/mL	–
O=C(c1ccccc1)c1ccc2n1CCC2C(=O)O (stereo not drawn) [Ketorolac, ketorolac, reference compound]	2 to 4 h	10 mg/L	30 μg/cm^2/h	100 µg/mL (≈ 0.392 mM)	–
CN1C(C(=O)Nc2ccccn2)=C(O)c2sc(Cl)cc2S1(=O)=O [Lornoxicam, lornoxicam, reference compound]	2 to 4 h	0.1 mg/L	<1 μg/cm^2/h	< 100 µg/mL	–
CC(C(=O)O)c1ccc(CC2CCCC2=O)cc1 (stereo not drawn) [Loxoprofen, loxoprofen, reference compound]	2 to 4 h	10 mg/L	30 μg/cm^2/h	100 µg/mL (≈ 0.406 mM)	–
CC(=O)O.CCN(CC)CCNC(=O)CCc1nc(-c2ccccc2)c(-c2ccccc2)o1 [N-diethylaminoethyl 4,5-Diphenyl-2-oxazole propionamide.AcOH]	–	–	–	–	Solubility in water [3]: 400000 µg/mL
CC(=O)O.CN(C)CCNC(=O)Cc1ccccc1Nc1c(Cl)cccc1Cl [N-dimethylaminoethyl 2[(2,6-dichlorophenyl)amino] benzene acetamide.AcOH]	–	–	–	–	Solubility in water [3]: 450000 µg/mL
O=C(O)CCc1nc(-c2ccccc2)c(-c2ccccc2)o1 [Oxaprozin, oxaprozin, reference compound]	2 to 4 h	10 mg/L	30 μg/cm^2/h	100 µg/mL (≈ 0.341 mM)	–
CC(C(=O)O)c1ccc(N2CC=CC2)c(Cl)c1 (stereo not drawn) [Pirprofen, pirprofen, reference compound]	2 to 4 h	10 mg/L	30 μg/cm^2/h	100 µg/mL (≈ 0.397 mM)	–
CC(=O)O.CN(C)CCSC(=O)Cc1ccccc1Nc1c(Cl)cccc1Cl [S-dimethylaminoethyl 2[(2,6-dichlorophenyl)amino] benzene acetate.AcOH]	–	–	–	–	Solubility in water [3]: 410000 µg/mL
CC(=O)O.CCN(CC)CCOC(=O)CCc1nc(-c2ccccc2)c(-c2ccccc2)o1 [diethylaminoethyl 4,5-Diphenyl-2-oxazole propionate.AcOH]	–	–	–	–	Peak plasma concentration of parent compound after prodrug compound [1]: 2000 mg/L; t, time to peak plasma level of parent compound after prodrug compound [1]: 50 min; % (rate of writhing inhibition) [4]: 55%; No. of Writhing [4]: 15.7; body temperature, t = 0 min [5]: 37.24 ± 0.07; body temperature, t = 90 min [5]: 36.82 ± 0.06; body temperature, t = 180 min [5]: 36.70 ± 0.05; body temperature, t = 270 min [5]: 36.67 ± 0.08; In vitro penetration rate (apparent flux), prodrug compounds [2]: 4000 μg/cm^2/h
CC(=O)O.CCN(CC)CCOC(=O)CC(O)c1ccc(-c2ccc(Cl)cc2)o1 (stereo not drawn) [diethylaminoethyl 5-(4-chlorophenyl)-beta-hydroxy-2-furanpropionate.AcOH]	–	–	–	–	Peak plasma concentration of parent compound after prodrug compound [1]: 2000 mg/L; t, time to peak plasma level of parent compound after prodrug compound [1]: 50 min; % (rate of writhing inhibition) [4]: 55%; No. of Writhing [4]: 15.6; body temperature, t = 0 min [5]: 37.29 ± 0.07; body temperature, t = 90 min [5]: 36.82 ± 0.06; body temperature, t = 180 min [5]: 36.60 ± 0.05; body temperature, t = 270 min [5]: 36.67 ± 0.08; In vitro penetration rate (apparent flux), prodrug compounds [2]: 4100 μg/cm^2/h
CC(=O)O.CCN(CC)CCOC(=O)C1CCn2c(C(=O)c3ccccc3)ccc21 (stereo not drawn) [diethylaminoethyl 5-benzoyl-2,3-dihydro-1H-pyrrolizine-1-carboxylate.AcOH]	–	–	–	–	Peak plasma concentration of parent compound after prodrug compound [1]: 2000 mg/L; t, time to peak plasma level of parent compound after prodrug compound [1]: 50 min; % (rate of writhing inhibition) [4]: 54%; No. of Writhing [4]: 16.1; body temperature, t = 0 min [5]: 37.22 ± 0.06; body temperature, t = 90 min [5]: 36.65 ± 0.06; body temperature, t = 180 min [5]: 36.58 ± 0.08; body temperature, t = 270 min [5]: 36.51 ± 0.07; In vitro penetration rate (apparent flux), prodrug compounds [2]: 3800 μg/cm^2/h
CC(=O)O.CCN(CC)CCOC(=O)C(C)c1ccc(C(=O)c2ccccc2)s1 (stereo not drawn) [diethylaminoethyl 5-benzoyl-α-methyl-2-thiopheneacetate.AcOH]	–	–	–	–	Peak plasma concentration of parent compound after prodrug compound [1]: 2000 mg/L; t, time to peak plasma level of parent compound after prodrug compound [1]: 50 min; % (rate of writhing inhibition) [4]: 62%; No. of Writhing [4]: 13.2; body temperature, t = 0 min [5]: 37.26 ± 0.06; body temperature, t = 90 min [5]: 36.65 ± 0.06; body temperature, t = 180 min [5]: 36.58 ± 0.08; body temperature, t = 270 min [5]: 36.36 ± 0.07; In vitro penetration rate (apparent flux), prodrug compounds [2]: 4200 μg/cm^2/h
CC(=O)O.CCN(CC)CCOC(=O)Cc1ccc(CC(C)C)cc1 [diethylaminoethyl p-isobutylphenylacetate.AcOH]	–	–	–	–	Solubility of HPP ([3]; medium not given): >250000 µg/mL
CC(=O)O.CC(C)Cc1ccc(C(C)C(=O)OCCN(C)C)cc1 (stereo not drawn) [dimethylaminoethyl 2-(ρ-isobutylphenyl) propionate.AcOH]	–	–	–	–	LD50 of HPP [6]: 1600 mg/kg
CC(=O)Oc1ccccc1C(=O)OCCN(C)C [dimethylaminoethyl acetylsalicylate.AcOH]	–	–	–	–	LD50 of HPP [6]: 2200 mg/kg

Now from value to molecule, other results behind:

t, time to peak plasma level after parent compound [1]	Peak plasma concentration after parent compound [1]	In vitro penetration rate (apparent flux), parent compounds [2]	solubility [3]	Structure (SMILES)	further results
2 to 4 h	10 mg/L	40 μg/cm^2/h	100 µg/mL (≈ 0.337 mM)	Cc1ccc2c(c1)CC(=O)c1cc(C(C)C(=O)O)ccc1O2 (stereo not drawn) [Bermoprofen, bermoprofen, reference compound]	–
2 to 4 h	0.1 mg/L	10 μg/cm^2/h	< 100 µg/mL	Cc1c(Nc2ncccc2C(=O)O)cccc1C(F)(F)F [Flunixin, flunixin, reference compound]	–
2 to 4 h	10 mg/L	30 μg/cm^2/h	200 µg/mL (≈ 0.819 mM)	CC(C(=O)O)c1ccc(-c2ccccc2)c(F)c1 (stereo not drawn) [Flurbiprofen, flurbiprofen, reference compound]	–
2 to 4 h	0.1 mg/L	10 μg/cm^2/h	< 100 µg/mL	Cc1ccc(Cl)c(Nc2ccccc2C(=O)O)c1Cl [Meclofenamic acid, meclofenamic acid, reference compound]	–
2 to 4 h	0.1 mg/L	<1 μg/cm^2/h	< 100 µg/mL	Cc1cnc(NC(=O)C2=C(O)c3ccccc3S(=O)(=O)N2C)s1 [Meloxicam, meloxicam, reference compound]	–
2 to 4 h	10 mg/L	30 μg/cm^2/h	100 µg/mL (≈ 0.384 mM)	CC(C(=O)O)c1ccc(C(=O)c2cccs2)cc1 (stereo not drawn) [Suprofen, suprofen, reference compound]	–
2 to 4 h	10 mg/L	30 μg/cm^2/h	100 µg/mL (≈ 0.384 mM)	CC(C(=O)O)c1ccc(C(=O)c2ccccc2)s1 (stereo not drawn) [Tiaprofenic acid, tiaprofenic acid, reference compound]	–
2 to 4 h	10 mg/L	30 μg/cm^2/h	100 µg/mL (≈ 0.335 mM)	CC(C(=O)O)c1ccc2c(c1)CC(=O)c1ccccc1S2 (stereo not drawn) [Zaltoprofen, zaltoprofen, reference compound]	–
–	–	–	> 400000 µg/mL	CCN(CC)CCOC(=O)c1ccccc1Nc1cccc(Cl)c1C [diethylaminoethyl 2-[(3-chloro-2-methylphenyl)amino]benzoate]	–
–	–	–	< 100 µg/mL	Cc1c(Cl)cccc1Nc1ccccc1C(=O)O [tolfenamic acid]	–
